Results reported in ChEMBL document CHEMBL1140040, “Synthesis and cytotoxic activity of some novel polycyclic gamma-butyrolactones” (Bioorg Med Chem Lett, 2008).
pIC50: −log10 of the molar value.

Columns and labels:
[1] = tested on: SF-295; assay: Cytotoxicity against human SF295 cells assessed as age growth inhibition at 50 uM after 48 hrs by sulforhodamine B assay; type: functional; conditions: SF-295, 48 h, read-out: GI
[2] = tested on: SK-OV-3; assay: Cytotoxicity against human SKOV3 cells assessed as age growth inhibition at 100 uM after 48 hrs by sulforhodamine B assay; type: functional; conditions: SK-OV-3, 48 h, read-out: GI
[3] = tested on: DU-145; assay: Cytotoxicity against human DU145 cells assessed as age growth inhibition at 10 uM after 48 hrs by sulforhodamine B assay; type: functional; conditions: DU-145, 48 h, read-out: GI
[4] = tested on: HCT-15; assay: Antiproliferative activity against human HCT15 cells after 48 hrs by sulforhodamine B assay; type: functional, cell-based; conditions: HCT-15, 48 h
[5] = tested on: HCT-15; assay: Cytotoxicity against human HCT15 cells assessed as age growth inhibition at 100 uM after 48 hrs by sulforhodamine B assay; type: functional; conditions: HCT-15, 48 h, read-out: GI
[6] = tested on: SK-OV-3; assay: Cytotoxicity against human SKOV3 cells assessed as age growth inhibition at 50 uM after 48 hrs by sulforhodamine B assay; type: functional; conditions: SK-OV-3, 48 h, read-out: GI
[7] = tested on: SF-295; assay: Cytotoxicity against human SF295 cells assessed as age growth inhibition at 10 uM after 48 hrs by sulforhodamine B assay; type: functional; conditions: SF-295, 48 h, read-out: GI
[8] = tested on: HEp-2; assay: Cytotoxicity against human HEP2 cells assessed as age growth inhibition at 100 uM after 48 hrs by sulforhodamine B assay; type: functional; conditions: HEp-2, 48 h, read-out: GI
[9] = tested on: HEp-2; assay: Antiproliferative activity against human HEP2 cells after 48 hrs by sulforhodamine B assay; type: functional, cell-based; conditions: HEp-2, 48 h
[10] = tested on: IGROV-1; assay: Cytotoxicity against human IGROV1 cells assessed as age growth inhibition at 100 uM after 48 hrs by sulforhodamine B assay; type: functional; conditions: IGROV-1, 48 h, read-out: GI
[11] = tested on: HOP-62; assay: Antiproliferative activity against human HOP62 cells after 48 hrs by sulforhodamine B assay; type: functional, cell-based; conditions: HOP-62, 48 h
[12] = tested on: IGROV-1; assay: Cytotoxicity against human IGROV1 cells assessed as age growth inhibition at 10 uM after 48 hrs by sulforhodamine B assay; type: functional; conditions: IGROV-1, 48 h, read-out: GI
[13] = tested on: SF-295; assay: Antiproliferative activity against human SF295 cells after 48 hrs by sulforhodamine B assay; type: functional, cell-based; conditions: SF-295, 48 h
[14] = tested on: A549; assay: Cytotoxicity against human A549 cells assessed as age growth inhibition at 10 uM after 48 hrs by sulforhodamine B assay; type: functional; conditions: A549, 48 h, read-out: GI
[15] = tested on: HOP-62; assay: Cytotoxicity against human HOP62 cells assessed as age growth inhibition at 100 uM after 48 hrs by sulforhodamine B assay; type: functional; conditions: HOP-62, 48 h, read-out: GI
[16] = tested on: A549; assay: Cytotoxicity against human A549 cells assessed as age growth inhibition at 100 uM after 48 hrs by sulforhodamine B assay; type: functional; conditions: A549, 48 h, read-out: GI
[17] = tested on: SK-OV-3; assay: Cytotoxicity against human SKOV3 cells assessed as age growth inhibition at 10 uM after 48 hrs by sulforhodamine B assay; type: functional; conditions: SK-OV-3, 48 h, read-out: GI
[18] = tested on: IGROV-1; assay: Antiproliferative activity against human IGROV1 cells after 48 hrs by sulforhodamine B assay; type: functional, cell-based; conditions: IGROV-1, 48 h
[19] = tested on: COLO 205; assay: Cytotoxicity against human COLO205 cells assessed as age growth inhibition at 50 uM after 48 hrs by sulforhodamine B assay; type: functional; conditions: COLO 205, 48 h, read-out: GI
[20] = tested on: HCT-15; assay: Cytotoxicity against human HCT15 cells assessed as age growth inhibition at 10 uM after 48 hrs by sulforhodamine B assay; type: functional; conditions: HCT-15, 48 h, read-out: GI
[21] = tested on: HEp-2; assay: Cytotoxicity against human HEP2 cells assessed as age growth inhibition at 50 uM after 48 hrs by sulforhodamine B assay; type: functional; conditions: HEp-2, 48 h, read-out: GI
[22] = tested on: DU-145; assay: Cytotoxicity against human DU145 cells assessed as age growth inhibition at 50 uM after 48 hrs by sulforhodamine B assay; type: functional; conditions: DU-145, 48 h, read-out: GI
[23] = tested on: IGROV-1; assay: Cytotoxicity against human IGROV1 cells assessed as age growth inhibition at 50 uM after 48 hrs by sulforhodamine B assay; type: functional; conditions: IGROV-1, 48 h, read-out: GI
[24] = tested on: SF-295; assay: Cytotoxicity against human SF295 cells assessed as age growth inhibition at 100 uM after 48 hrs by sulforhodamine B assay; type: functional; conditions: SF-295, 48 h, read-out: GI
[25] = tested on: SK-OV-3; assay: Antiproliferative activity against human SKOV3 cells after 48 hrs by sulforhodamine B assay; type: functional, cell-based; conditions: SK-OV-3, 48 h
[26] = tested on: COLO 205; assay: Cytotoxicity against human COLO205 cells assessed as age growth inhibition at 10 uM after 48 hrs by sulforhodamine B assay; type: functional; conditions: COLO 205, 48 h, read-out: GI
[27] = tested on: COLO 205; assay: Cytotoxicity against human COLO205 cells assessed as age growth inhibition at 100 uM after 48 hrs by sulforhodamine B assay; type: functional; conditions: COLO 205, 48 h, read-out: GI
[28] = tested on: COLO 205; assay: Antiproliferative activity against human COLO205 cells after 48 hrs by sulforhodamine B assay; type: functional, cell-based; conditions: COLO 205, 48 h
[29] = tested on: HOP-62; assay: Cytotoxicity against human HOP62 cells assessed as age growth inhibition at 50 uM after 48 hrs by sulforhodamine B assay; type: functional; conditions: HOP-62, 48 h, read-out: GI
[30] = tested on: HCT-15; assay: Cytotoxicity against human HCT15 cells assessed as age growth inhibition at 50 uM after 48 hrs by sulforhodamine B assay; type: functional; conditions: HCT-15, 48 h, read-out: GI
[31] = tested on: HEp-2; assay: Cytotoxicity against human HEP2 cells assessed as age growth inhibition at 10 uM after 48 hrs by sulforhodamine B assay; type: functional; conditions: HEp-2, 48 h, read-out: GI
[32] = tested on: HOP-62; assay: Cytotoxicity against human HOP62 cells assessed as age growth inhibition at 10 uM after 48 hrs by sulforhodamine B assay; type: functional; conditions: HOP-62, 48 h, read-out: GI
[33] = tested on: DU-145; assay: Antiproliferative activity against human DU145 cells after 48 hrs by sulforhodamine B assay; type: functional, cell-based; conditions: DU-145, 48 h
[34] = tested on: A549; assay: Cytotoxicity against human A549 cells assessed as age growth inhibition at 50 uM after 48 hrs by sulforhodamine B assay; type: functional; conditions: A549, 48 h, read-out: GI
[35] = tested on: A549; assay: Antiproliferative activity against human A549 cells after 48 hrs by sulforhodamine B assay; type: functional, cell-based; conditions: A549, 48 h
[36] = tested on: DU-145; assay: Cytotoxicity against human DU145 cells assessed as age growth inhibition at 100 uM after 48 hrs by sulforhodamine B assay; type: functional; conditions: DU-145, 48 h, read-out: GI
[37] = tested on: A549; assay: Cytotoxicity against human A549 cells assessed as age growth inhibition at 20 uM after 48 hrs by sulforhodamine B assay; type: functional; conditions: A549, 48 h, read-out: GI
[38] = tested on: SK-OV-3; assay: Cytotoxicity against human SKOV3 cells assessed as age growth inhibition at 20 uM after 48 hrs by sulforhodamine B assay; type: functional; conditions: SK-OV-3, 48 h, read-out: GI
[39] = tested on: IGROV-1; assay: Cytotoxicity against human IGROV1 cells assessed as age growth inhibition at 20 uM after 48 hrs by sulforhodamine B assay; type: functional; conditions: IGROV-1, 48 h, read-out: GI
[40] = tested on: HEp-2; assay: Cytotoxicity against human HEP2 cells assessed as age growth inhibition at 20 uM after 48 hrs by sulforhodamine B assay; type: functional; conditions: HEp-2, 48 h, read-out: GI
[41] = tested on: COLO 205; assay: Cytotoxicity against human COLO205 cells assessed as age growth inhibition at 20 uM after 48 hrs by sulforhodamine B assay; type: functional; conditions: COLO 205, 48 h, read-out: GI
[42] = tested on: SF-295; assay: Cytotoxicity against human SF295 cells assessed as age growth inhibition at 20 uM after 48 hrs by sulforhodamine B assay; type: functional; conditions: SF-295, 48 h, read-out: GI
[43] = tested on: HOP-62; assay: Cytotoxicity against human HOP62 cells assessed as age growth inhibition at 20 uM after 48 hrs by sulforhodamine B assay; type: functional; conditions: HOP-62, 48 h, read-out: GI
[44] = tested on: DU-145; assay: Cytotoxicity against human DU145 cells assessed as age growth inhibition at 20 uM after 48 hrs by sulforhodamine B assay; type: functional; conditions: DU-145, 48 h, read-out: GI
[45] = tested on: HCT-15; assay: Cytotoxicity against human HCT15 cells assessed as age growth inhibition at 20 uM after 48 hrs by sulforhodamine B assay; type: functional; conditions: HCT-15, 48 h, read-out: GI

## CC1(C)CCC[C@@]2(C)C1=C[C@H]1C(=O)O[C@H](c3ccc(Br)cc3)[C@H]12
[1]
  inhibition of growth at 50 µM: 18%
[2]
  inhibition of growth at 100 µM: 52%
[3]
  inhibition of growth at 10 µM: 21%
[4]
  pIC50: < 4.00
[5]
  inhibition of growth at 100 µM: 40%
[6]
  inhibition of growth at 50 µM: 28%
[7]
  inhibition of growth at 10 µM: 0%
[8]
  inhibition of growth at 100 µM: 22%
[9]
  pIC50: < 4.00
[10]
  inhibition of growth at 100 µM: 30%
[11]
  pIC50: 4.31
[12]
  inhibition of growth at 10 µM: 7%
[13]
  pIC50: < 4.00
[14]
  inhibition of growth at 10 µM: 8%
[15]
  inhibition of growth at 100 µM: 66%
[16]
  inhibition of growth at 100 µM: 26%
[17]
  inhibition of growth at 10 µM: 6%
[18]
  pIC50: < 4.00
[19]
  inhibition of growth at 50 µM: 14%
[20]
  inhibition of growth at 10 µM: 7%
[21]
  inhibition of growth at 50 µM: 18%
[22]
  inhibition of growth at 50 µM: 27%
[23]
  inhibition of growth at 50 µM: 26%
[24]
  inhibition of growth at 100 µM: 21%
[25]
  pIC50: 4.02
[26]
  inhibition of growth at 10 µM: 14%
[27]
  inhibition of growth at 100 µM: 32%
[28]
  pIC50: < 4.00
[29]
  inhibition of growth at 50 µM: 55%
[30]
  inhibition of growth at 50 µM: 32%
[31]
  inhibition of growth at 10 µM: 3%
[32]
  inhibition of growth at 10 µM: 0%
[33]
  pIC50: < 4.00
[34]
  inhibition of growth at 50 µM: 10%
[35]
  pIC50: < 4.00
[36]
  inhibition of growth at 100 µM: 28%

## CC1(C)CCC[C@@]2(C)C1=C[C@H]1C(=O)O[C@H](c3ccc(C#N)cc3)[C@H]12
[1]
  inhibition of growth at 50 µM: 17%
[2]
  inhibition of growth at 100 µM: 27%
[3]
  inhibition of growth at 10 µM: 16%
[4]
  pIC50: < 4.00
[5]
  inhibition of growth at 100 µM: 30%
[6]
  inhibition of growth at 50 µM: 25%
[7]
  inhibition of growth at 10 µM: 12%
[8]
  inhibition of growth at 100 µM: 19%
[9]
  pIC50: < 4.00
[10]
  inhibition of growth at 100 µM: 29%
[11]
  pIC50: < 4.00
[12]
  inhibition of growth at 10 µM: 6%
[13]
  pIC50: < 4.00
[14]
  inhibition of growth at 10 µM: 15%
[15]
  inhibition of growth at 100 µM: 18%
[16]
  inhibition of growth at 100 µM: 25%
[17]
  inhibition of growth at 10 µM: 17%
[18]
  pIC50: < 4.00
[19]
  inhibition of growth at 50 µM: 24%
[20]
  inhibition of growth at 10 µM: 14%
[21]
  inhibition of growth at 50 µM: 18%
[22]
  inhibition of growth at 50 µM: 22%
[23]
  inhibition of growth at 50 µM: 25%
[24]
  inhibition of growth at 100 µM: 20%
[25]
  pIC50: < 4.00
[26]
  inhibition of growth at 10 µM: 2%
[27]
  inhibition of growth at 100 µM: 24%
[28]
  pIC50: < 4.00
[29]
  inhibition of growth at 50 µM: 9%
[30]
  inhibition of growth at 50 µM: 25%
[31]
  inhibition of growth at 10 µM: 5%
[32]
  inhibition of growth at 10 µM: 5%
[33]
  pIC50: < 4.00
[34]
  inhibition of growth at 50 µM: 24%
[35]
  pIC50: < 4.00
[36]
  inhibition of growth at 100 µM: 25%

## O=c1[nH]cc(F)c(=O)[nH]1 [FLUOROURACIL]
[37]
  inhibition of growth at 20 µM: 57%
[38]
  inhibition of growth at 20 µM: 46%
[39]
  inhibition of growth at 20 µM: 29%
[40]
  inhibition of growth at 20 µM: 77%
[41]
  inhibition of growth at 20 µM: 27%
[42]
  inhibition of growth at 20 µM: 11%
[43]
  inhibition of growth at 20 µM: 37%
[44]
  inhibition of growth at 20 µM: 29%
[45]
  inhibition of growth at 20 µM: 30%
